Measurements as given in patent US20090181409A1, “Optical biosensor method for cell-cell interaction” (priority 2008, published 2009).

What was measured:
CHO-ICAM1 cells = test: NK92 cell-induced N-DMR signal of CHO-ICAM1 cells (Epic RWG biosensor), modulation by pharmacological agents; type: cell-based, Chinese hamster; settings: CHO-ICAM1 cells pretreated with agent for 1 hour before NK cells; killer:target ratio 1; 28° C.
Source text: The impacts of four pharmacological agents were examined on the NK92 cell-induced DMR signal of CHO-ICAM1 cells. FIG. 4 illustrate the modulation profile (response v. modulator concentration in microM) of the natural killer cell-induced DMR signal of the target cell layer by four different modulators at different doses:
Cell culture—Natural killer cells-NK92MI, both parental CHO-K1 and engineered CHO expressing ICAM1 receptor (CHO-ICAM1) were purchased from American Type Culture Collection (Manassas, Va.). NK92MI cells were grown in RPMI medium plus 12.5% horse serum and 12.5 fetal bovine serum (FBS) and antibiotics. CHO-K1 cells and CHO-ICAM1 cells were grown in RPMI supplemented with 10% fetal bovine serum (FBS) and antibiotics. Approximately 1-2×10^4 target cells of CHO-K1 or CHO-ICAM1 in 50 μl medium were placed in each well of Epic® 384-well microplate. After cell seeding, the cells were cultured at 37° C. under air/5% CO2 until a high degree, e.g. 90%, of confluence was reached (e.g., about 24 hrs). Cells were continuously cultured for over night with their corresponding media without any serum to keep cells at a quiescent state and cell confluence was over 95%.
Epic® system and DMR assays—An Epic® beta system was used during this study. For cell-cell interaction study, target cell density was at 95-100% confluence and the cells were finally maintained with the appropriate medium as described above. Cell number of NK92MI was counted with Beckman Coulter Particle Counter (Beckman Coulter, Fullerton, Calif.). Unless stated otherwise, a ratio of 1 between killer cells and target cells was used. NK92MI cells were suspended in RPMI plus 2% FBS. A 20-microliter solution of NK92MI was aliquoted to each well of a normal 384-well microplate (Corning Inc., Corning, N.Y.). The plates of the target-cell and the natural killer cell were incubated in the Epic® instrument for at least 30 minutes to reach 28° C. For pharmacological agent studies, the Icam1 cells had been pretreated with the agents for 1 hour before the NK cells were introduced. All studies were carried out at 28° C. with the lid of the microplate on except for a short period of time (e.g., about several seconds) when the solution was introduced, in order to minimize the effect of temperature fluctuation and evaporative cooling.

D1 cells = test: NK92 cell-induced optical signal of D1 cells (Epic RWG biosensor), modulation by pharmacological agents; type: cell-based, mouse; settings: D1 cells pretreated with agent for 1 hour before NK cells; killer:target ratio 1; 28° C.
Protocol: The impact of six pharmacological agents was examined on the NK92 cell-induced optical signal of D1 cells. […] Brefeldin A (BFA), and Camptothecin are defined above. Kp7-6 is an exocyclic cystine-knot peptide that specifically antagonizes Fas/FasL-mediated cellular apoptotic signals, for example, it can reduce 58% of FasL-induced apoptosis in Jurkat cells at 1 mg/mL. Latrunculin inhibits actin polymerization in vitro and disrupts microfilament organization as well as microfilament-mediated processes. […] Wortmannin is a potent, selective, cell-permeable and irreversible inhibitor of phosphatidylinositol 3-kinase.
Cell culture—Natural killer cells-NK92MI and the multipotent mouse bone marrow D1 cell line were from American Type Culture Collection (Manassas, Va.). NK92MI cells were grown in RPMI medium plus 12.5% horse serum and 12.5 fetal bovine serum (FBS) and antibiotics. D1 cells were grown in Dulbecco's Modified Eagle's Medium supplemented with 10% fetal bovine serum (FBS) and antibiotics. Approximately 1×10^4 to 2×10^4 target cells of D1 in 50 μL medium were placed in each well of Epic® 384-well microplate. After cell seeding, the cells were cultured at 37° C. under air/5% CO2 until a high degree, e.g., 90% of confluence was reached (about 24 hrs). Cells were continuously cultured overnight in their corresponding media without any serum to keep cells at a quiescent state and cell confluence was over about 95%.
Epic® system and DMR assays—Epic® beta system was used during this study. For cell-cell interaction study, target cell density was at about 95-100% confluence and the cells were finally maintained with the appropriate medium as described above. Cell number of NK92MI was counted with Beckman Coulter Particle Counter. Unless stated otherwise, a ratio of 1 between killer cells and target cells was used. NK92MI cells were suspended in RPMI plus 2% FBS. A 20 μL aliquot of NK92MI solution was added to each well of a normal 384-well microplate (Corning Inc., Corning, N.Y.). The plates of the target cells and the natural killer cells were incubated in the Epic® instrument for at least 30 minutes to reach 28° C. For pharmacological agent studies, the D1 cells were pretreated with the agents for 1 hour before NK cells were introduced. All studies were carried out at 28° C. for consistency and having the lid of the microplate continuously on except for a short period of time (e.g., about seconds) when the solution was introduced to minimize the effect of temperature fluctuation and evaporative cooling.

RhoA = RhoA (Homo sapiens, UniProt P61586); settings: cited from earlier work
Sequence of RhoA (P61586 whole entry, species assumed): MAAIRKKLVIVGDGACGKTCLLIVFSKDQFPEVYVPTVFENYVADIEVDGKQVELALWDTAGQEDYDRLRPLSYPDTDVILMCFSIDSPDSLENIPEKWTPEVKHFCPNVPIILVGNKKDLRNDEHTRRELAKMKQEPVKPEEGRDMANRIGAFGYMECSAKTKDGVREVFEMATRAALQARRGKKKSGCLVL

SMILES	effect on NK92-induced N-DMR of CHO-ICAM1 cells (CHO-ICAM1 cells)	effect on NK92-induced signals of D1 cells (D1 cells)	effect on RhoA activation (RhoA)
CC[C@]1(O)C[C@@H]2CN(CCc3c([nH]c4ccccc34)[C@@](C(=O)OC)(c3cc4c(cc3OC)N(C)[C@H]3[C@@](O)(C(=O)OC)[C@H](OC(C)=O)[C@]5(CC)C=CCN6CC[C@]43[C@@H]65)C2)C1 [vinblastine, Vinblastine]	dose dependently increases		
CC[C@@]1(O)C(=O)OCc2c1cc1n(c2=O)Cc2cc3ccccc3nc2-1 [camptothecin, Camptothecin]	dose dependently increases	dose dependently increases	
C[C@H]1CCC/C=C/[C@@H]2C[C@H](O)C[C@H]2[C@H](O)/C=C/C(=O)O1 [BFA, Brefeldin A]	dose dependently increases	dose dependently increases	
N#CC(=C(/N)Sc1ccccc1N)/C(C#N)=C(\N)Sc1ccccc1N [U0126]	dose-dependently suppressed		
COC(=O)CC[C@H](NC(=O)[C@H](CC(=O)OC)NC(=O)OCc1ccccc1)C(=O)N[C@H](C(=O)N[C@@H](CC(=O)OC)C(=O)CF)C(C)C [caspase 3 inhibitor]	little effect		
CCN(CC)CCCC(C)Nc1nc(C)cc(Nc2ccc3nc(C)cc(N)c3c2)n1 (racemic) [Rac1 inhibitor]		dose dependently increases	no effect
C/C1=C/C(=O)O[C@@H]2C[C@@H](CC[C@H](C)/C=C\C=C\CC1)O[C@@](O)([C@@H]1CSC(=O)N1)C2 [latrunculin A]		dose dependently increases	
